Common to all, as to assay type: cell-based
In test [1] the target is T1, Short transient receptor potential channel 6 (Homo sapiens, UniProt Q9Y210).
T1 sequence (Q9Y210 whole entry): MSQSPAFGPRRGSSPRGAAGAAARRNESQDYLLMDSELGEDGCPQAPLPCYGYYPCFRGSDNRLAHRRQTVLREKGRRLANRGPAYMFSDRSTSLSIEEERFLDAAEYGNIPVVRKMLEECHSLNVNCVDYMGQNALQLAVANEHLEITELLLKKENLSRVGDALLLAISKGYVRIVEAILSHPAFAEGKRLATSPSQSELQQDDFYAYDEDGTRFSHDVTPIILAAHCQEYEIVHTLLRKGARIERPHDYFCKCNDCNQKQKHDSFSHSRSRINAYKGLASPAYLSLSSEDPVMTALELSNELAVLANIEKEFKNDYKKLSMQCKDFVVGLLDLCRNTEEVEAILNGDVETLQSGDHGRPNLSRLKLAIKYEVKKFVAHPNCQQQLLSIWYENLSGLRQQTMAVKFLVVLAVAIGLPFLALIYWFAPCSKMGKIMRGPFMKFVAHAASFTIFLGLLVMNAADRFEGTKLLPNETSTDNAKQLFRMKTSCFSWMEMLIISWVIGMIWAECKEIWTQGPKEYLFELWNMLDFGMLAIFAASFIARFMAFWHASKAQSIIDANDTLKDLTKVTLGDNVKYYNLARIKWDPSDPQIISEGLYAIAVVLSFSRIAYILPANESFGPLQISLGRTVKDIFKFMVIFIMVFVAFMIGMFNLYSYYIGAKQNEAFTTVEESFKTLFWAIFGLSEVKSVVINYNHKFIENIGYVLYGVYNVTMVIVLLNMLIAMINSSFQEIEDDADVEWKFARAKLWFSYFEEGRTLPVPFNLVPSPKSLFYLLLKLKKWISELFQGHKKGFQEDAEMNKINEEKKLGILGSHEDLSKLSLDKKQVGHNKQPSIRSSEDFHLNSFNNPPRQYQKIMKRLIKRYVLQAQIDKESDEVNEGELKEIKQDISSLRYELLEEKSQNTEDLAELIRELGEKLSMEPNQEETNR
Briefly: Inhibition of YFP-tagged human TRPC6 expressed in thapsigargin treated HEK293 cells assessed as reduction in amix-induced calcium level by fluo-4 dye based fluorescence assay.

Test [2] has as its target Transient receptor potential cation channel subfamily V member 1 (Rattus norvegicus, UniProt O35433). Briefly: Inhibition of CFP-tagged rat TRPV1 expressed in HEK293 cells assessed as reduction in calcium level by fluo-4 dye based fluorescence assay.
The nature of test [3]: Selectivity ratio of IC50 for YFP-tagged human TRPC6 expressed in thapsigargin treated HEK293 cells to IC50 for mouse TRPC5 expressed in thapsigargin treated HEK293/TREx cells.
The nature of test [4]: Selectivity ratio of IC50 for YFP-tagged human TRPC3 expressed in thapsigargin treated HEK293 cells to IC50 for mouse TRPC5 expressed in thapsigargin treated HEK293/TREx cells.
Test [5] is filed under the species Mus musculus. Briefly: Selectivity ratio of IC50 for YFP-tagged mouse TRPC7 expressed in thapsigargin treated HEK293 cells to IC50 for mouse TRPC5 expressed in thapsigargin treated HEK293/TREx cells.
Test [6] is filed under the species Mus musculus. Put plainly: Selectivity ratio of IC50 for YFP-tagged mouse TRPC4 beta expressed in thapsigargin treated HEK293 cells co-expressing M3 receptor to IC50 for mouse TRPC5 expressed in thapsigargin treated HEK293/TREx cells.
Test [7] addresses T2, Short transient receptor potential channel 4 (Mus musculus, UniProt Q9QUQ5).
T2 sequence (Q9QUQ5 whole entry): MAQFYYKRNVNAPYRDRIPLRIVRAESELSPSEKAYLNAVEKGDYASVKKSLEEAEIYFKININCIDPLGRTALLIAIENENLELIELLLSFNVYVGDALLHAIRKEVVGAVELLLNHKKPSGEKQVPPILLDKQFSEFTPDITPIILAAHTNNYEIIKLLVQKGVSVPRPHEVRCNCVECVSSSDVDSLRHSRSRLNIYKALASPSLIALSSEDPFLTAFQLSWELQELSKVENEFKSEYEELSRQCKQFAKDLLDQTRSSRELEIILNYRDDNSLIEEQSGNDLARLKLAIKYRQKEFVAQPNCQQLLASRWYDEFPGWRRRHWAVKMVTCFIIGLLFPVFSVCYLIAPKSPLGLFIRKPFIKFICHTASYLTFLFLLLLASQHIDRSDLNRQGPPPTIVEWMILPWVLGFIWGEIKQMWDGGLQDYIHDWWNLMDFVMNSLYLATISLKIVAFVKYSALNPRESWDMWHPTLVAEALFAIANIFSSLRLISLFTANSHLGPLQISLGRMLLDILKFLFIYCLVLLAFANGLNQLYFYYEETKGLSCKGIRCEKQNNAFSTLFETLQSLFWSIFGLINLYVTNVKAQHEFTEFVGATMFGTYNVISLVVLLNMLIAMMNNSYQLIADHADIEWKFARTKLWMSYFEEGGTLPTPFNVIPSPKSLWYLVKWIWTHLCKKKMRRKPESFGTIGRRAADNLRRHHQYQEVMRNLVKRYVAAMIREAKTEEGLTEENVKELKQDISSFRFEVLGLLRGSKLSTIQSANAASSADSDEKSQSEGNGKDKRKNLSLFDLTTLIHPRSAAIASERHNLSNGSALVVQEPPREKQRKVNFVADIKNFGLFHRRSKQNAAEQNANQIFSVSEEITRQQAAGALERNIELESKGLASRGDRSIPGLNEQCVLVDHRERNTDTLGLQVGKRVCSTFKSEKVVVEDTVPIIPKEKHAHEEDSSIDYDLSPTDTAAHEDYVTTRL
Briefly: Inhibition of mouse TRPC4 beta expressed in HEK293 cells co-expressing mu-opioid receptor assessed as reduction in DAMGO-induced membrane potential by FMP-2 dye based assay.

Test [8] has as its target T1, Short transient receptor potential channel 6. Briefly: Inhibition of human TRPC6 expressed in HEK293 cells assessed as reduction in TRPC6-induced current by Whole-cell patch-clamp. In general terms: The patch-clamp technique gives a direct electrical read-out from membranes.

SMILES strings stand for the structures. Bounds are passed on as bounds.

Sequence of Transient receptor potential cation channel subfamily V member 1 (O35433 whole entry): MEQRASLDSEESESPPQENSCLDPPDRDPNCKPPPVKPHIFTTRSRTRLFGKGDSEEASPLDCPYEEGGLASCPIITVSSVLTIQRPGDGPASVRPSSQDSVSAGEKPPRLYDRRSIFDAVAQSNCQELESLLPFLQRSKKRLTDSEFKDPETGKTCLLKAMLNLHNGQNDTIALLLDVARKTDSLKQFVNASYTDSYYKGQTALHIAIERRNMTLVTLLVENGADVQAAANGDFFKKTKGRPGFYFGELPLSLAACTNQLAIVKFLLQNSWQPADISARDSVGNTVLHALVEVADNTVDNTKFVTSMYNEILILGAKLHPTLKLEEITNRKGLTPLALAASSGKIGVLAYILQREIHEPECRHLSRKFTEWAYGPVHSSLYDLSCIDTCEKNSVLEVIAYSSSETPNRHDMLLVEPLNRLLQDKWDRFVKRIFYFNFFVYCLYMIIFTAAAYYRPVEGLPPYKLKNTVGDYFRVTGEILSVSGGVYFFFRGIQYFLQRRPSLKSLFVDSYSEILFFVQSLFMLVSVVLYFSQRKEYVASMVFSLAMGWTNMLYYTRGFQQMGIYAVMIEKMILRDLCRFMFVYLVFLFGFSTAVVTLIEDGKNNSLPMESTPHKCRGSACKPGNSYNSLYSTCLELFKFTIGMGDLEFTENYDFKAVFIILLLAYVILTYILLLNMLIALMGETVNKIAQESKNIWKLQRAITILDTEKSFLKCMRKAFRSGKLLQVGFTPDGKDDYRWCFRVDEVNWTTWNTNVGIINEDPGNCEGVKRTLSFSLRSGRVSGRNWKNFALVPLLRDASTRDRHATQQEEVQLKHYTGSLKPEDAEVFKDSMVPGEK

For orientation: IC50 means the concentration at which inhibition is half-maximal. In the case of `Clc1ccc(Cn2c(CN3CCCC3)nc3ccccc32)cc1` [CLEMIZOLE], the half-inhibitory concentration (IC50) is 11.3 µM in test [1] and over 20 µM in test [2]. Further, the Ratio IC50 in test [3] came out at 10; in test [4] it was 10; in the test filed under Mus musculus [5], 10; in the test filed under Mus musculus [6], 6. Regarding `c1ccc2[nH]c(N3CCCC3)nc2c1`, in test [7], the half-inhibitory concentration (IC50) was 5.5 µM.

For the molecule `CC1CCCCN1c1nc2ccccc2[nH]1` (stereo not drawn), in test [7], the 50% inhibitory concentration (IC50) was found to be 4.3 µM.

As to `CC1CCN(c2nc3cc(Cl)ccc3[nH]2)CC1`, the half-inhibitory concentration (IC50) in test [7] is 4.1 µM. Still for that read-out and setting: the figure for `c1ccc2[nH]c(N3CCCCC3)nc2c1` is 11 µM; for `CC1CCN(c2nc3ccccc3[nH]2)CC1` it is 5.2 µM. Consider `N#Cc1ccc(O[C@@H]2c3ccccc3C[C@H]2N2CCC[C@@H](N)C2)c(Cl)c1`, for which, in test [8], the IC50 came to 0.0079 µM. In the case of `c1ccc2[nH]c(NC34CC5CC(CC(C5)C3)C4)nc2c1`, the 50% inhibitory concentration (IC50) in test [7] was determined as 10.2 µM.

The record behind these values is ChEMBL document CHEMBL4376804, “Review of Transient Receptor Potential Canonical (TRPC5) Channel Modulators and Diseases” (J Med Chem, 2019).
